ChEMBL document CHEMBL1240438, “Identification of potent virtual leads to design novel indoleamine 2,3-dioxygenase inhibitors: pharmacophore modeling and molecular docking studies” (Eur J Med Chem, 2010)

What follows are compounds tested against Indoleamine 2,3-dioxygenase 1 (Homo sapiens, UniProt P14902) (assay: Inhibition of 2,3 dioxygenase).
Chain of Indoleamine 2,3-dioxygenase 1 (P14902 whole entry): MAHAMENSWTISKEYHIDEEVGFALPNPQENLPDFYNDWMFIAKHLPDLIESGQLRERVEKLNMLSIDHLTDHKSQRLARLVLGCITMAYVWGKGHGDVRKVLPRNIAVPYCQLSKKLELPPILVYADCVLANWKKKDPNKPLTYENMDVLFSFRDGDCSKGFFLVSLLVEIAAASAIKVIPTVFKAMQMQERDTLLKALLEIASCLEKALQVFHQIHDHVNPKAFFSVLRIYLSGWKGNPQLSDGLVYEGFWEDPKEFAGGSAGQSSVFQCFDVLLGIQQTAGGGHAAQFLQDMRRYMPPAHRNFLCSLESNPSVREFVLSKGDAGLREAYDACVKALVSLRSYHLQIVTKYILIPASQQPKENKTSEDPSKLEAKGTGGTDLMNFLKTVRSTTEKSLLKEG

IC50 | Compound
4.95 µM | CC1(C)OC2=C(C(=O)c3ccccc3C2=O)C2OC21 (centres undefined)
0.88 µM | CC1=C(SCC(NC(=O)CCC(N)C(=O)O)C(=O)NCC(=O)O)C(=O)c2c(O)cccc2C1=O (centres undefined)
0.13 µM | CCCCNC1C2=C(OC(C)(C)C1O)C(=O)c1ccccc1C2=O (centres undefined)
2 µM | CC1(C)C=CC2=C(O1)C(=O)c1cc(O)ccc1C2=O
